Like-named read-outs stand apart in the source and are kept apart here.
Experiments:
PK studies (Cmax) = type: in vivo, mice; conditions: at the MTD study doses
Protocol: (§1) Maximum tolerated dose studies and pharmacokinetics for several LSD1 inhibitors were assessed to determine if the compounds can be administered to mammals safely at doses that are expected to achieve therapeutic effects. In particular, Compound X was given to mice IP at 20 mg/kg, 40 mg/kg and 60 mg/kg daily for 5 days in a MTD study conducted at Leitat.

in vitro = conditions: human, Cytotoxicity IC50, 72 hr
Protocol: (§2) The effect of drug added in triplicate at concentrations of from e.g., 0 to 100 uM using half log dilutions on HCV RNA-derived LUC activity and cytotoxicity. Human interferon alpha-2b is included in each run as a positive control compound. Subconfluent cultures of the ET line are plated out into 96-well plates that are dedicated for the analysis of cell numbers (cytotoxicity) or antiviral activity and the next day drugs are added to the appropriate wells. Cells are processed 72 hr later when the cells are still subconfluent. Compound cytotoxicity is assessed as the percent viable cells relative to the untreated cell controls.

[1] = system: Huh7 ET (luc-ubi-neo/ET) cells; test: in vitro; conditions: read-out: Cytotoxicity IC50; 72 hr
Protocol: as §2

[2] = Maximum tolerated dose study; type: in vivo; conditions: mice, IP, 20, 40 and 60 mg/kg daily for 5 days
Protocol: as §1

[3] = system: HCV RNA replicon in Huh7 ET (luc-ubi-neo/ET) cells; test: microbe, parasite or virus in culture; type: cell-based
Protocol: Anti-HCV assays were conducted at Southern Research Organization using an HCV RNA replicon with a luciferase reporter.
Southern Research reports that they use cell line Huh7 ET (luc-ubi-neo/ET) containing a HCV RNA replicon with a luciferase (LUC) reporter. […] This composition of the replicon is shown as follows
The HCV RNA replicon ET contains the 5′ NTR (IRES) of HCV (5′) which drives the production of a firefly luciferase (Luc), ubiquitin (Ubiq), and neomycin phosphotransferase (Neo) fusion protein. Ubiquitin cleavage releases the LUC and Neo genes. The EMCV IRES element (E-I) controls the translation of the HCV […] proteins NS3-NS5 and is located between Neo and NS3. The NS3 protein cleaves the HCV polyprotein to release the mature NS3, NS4A, NS4B, NS5A and NS5B proteins that are required for HCV replication. At the 3′ end of the replicon is the authentic 3′ NTR of HCV. The LUC reporter is used as an indirect measure of HCV replication. The activity of the LUC reporter is directly proportional to HCV RNA levels and positive control antiviral compounds behave comparably using either LUC or RNA endpoints.
as §2

[4] = system: H3K4 methylation in SH-SY5Y cells; test: Western blot for dimethylated H3K4 in SH-SY5Y cells; type: cell-based
Text: […]. B-actin was used as a loading control.

| SMILES | Cmax (PK studies (Cmax)) | IC50 (in vitro) [µM] | IC50 [1] [µM] | tolerability in MTD study [2] | EC50 ([3]; HCV RNA-derived LUC activity, 72 hr, read-out: Antiviral Activity EC50) [nM] | EC50 ([3]; Hepatitis C virus, Huh7 ET, 72 h, HCV RNA-derived LUC activity, 72 hr, read-out: Antiviral Activity EC50) [nM] | EC50 ([3]; Hepatitis C virus, Huh7 ET, read-out: anti-HCV activity in HCV RNA replication assay) [nM] | potency at increasing global dimethylated H3K4 levels as compared to tranylcypromine [4] [fold] |
| --- | --- | --- | --- | --- | --- | --- | --- | --- |
| NC1CC1c1ccc(-c2cccc(O)c2)cc1 (centres unmarked) [Compound X] | expected to result in therapeutic levels | 54.8 | 50.6 | tolerated with acceptable toxicity | < 320 | 490 | 300 to 500 | – |
| NC(=O)CNC1CC1c1ccc(OCc2ccccc2)cc1 (centres unmarked) [Dual-1] | – | – | – | – | – | – | – | ≥ 10 |

Reference: US9790196B2, “Lysine demethylase inhibitors for diseases and disorders associated with Flaviviridae” (Oryzon Genomics, S.A., priority 2010, dated 2017)
